Measurements: ChEMBL document CHEMBL1132892, “Cyclic thioether peptide mimetics as VCAM-VLA-4 antagonists” (Bioorg Med Chem Lett, 2000)

Key:
[1] = target: T1, Integrin alpha-4 (Homo sapiens, UniProt P13612); experiment: Compound was evaluated for VCAM-VLA-4 antagonistic activity using Ramos cell assay; assay type: functional, cell-based
T1 sequence (P13612 whole entry): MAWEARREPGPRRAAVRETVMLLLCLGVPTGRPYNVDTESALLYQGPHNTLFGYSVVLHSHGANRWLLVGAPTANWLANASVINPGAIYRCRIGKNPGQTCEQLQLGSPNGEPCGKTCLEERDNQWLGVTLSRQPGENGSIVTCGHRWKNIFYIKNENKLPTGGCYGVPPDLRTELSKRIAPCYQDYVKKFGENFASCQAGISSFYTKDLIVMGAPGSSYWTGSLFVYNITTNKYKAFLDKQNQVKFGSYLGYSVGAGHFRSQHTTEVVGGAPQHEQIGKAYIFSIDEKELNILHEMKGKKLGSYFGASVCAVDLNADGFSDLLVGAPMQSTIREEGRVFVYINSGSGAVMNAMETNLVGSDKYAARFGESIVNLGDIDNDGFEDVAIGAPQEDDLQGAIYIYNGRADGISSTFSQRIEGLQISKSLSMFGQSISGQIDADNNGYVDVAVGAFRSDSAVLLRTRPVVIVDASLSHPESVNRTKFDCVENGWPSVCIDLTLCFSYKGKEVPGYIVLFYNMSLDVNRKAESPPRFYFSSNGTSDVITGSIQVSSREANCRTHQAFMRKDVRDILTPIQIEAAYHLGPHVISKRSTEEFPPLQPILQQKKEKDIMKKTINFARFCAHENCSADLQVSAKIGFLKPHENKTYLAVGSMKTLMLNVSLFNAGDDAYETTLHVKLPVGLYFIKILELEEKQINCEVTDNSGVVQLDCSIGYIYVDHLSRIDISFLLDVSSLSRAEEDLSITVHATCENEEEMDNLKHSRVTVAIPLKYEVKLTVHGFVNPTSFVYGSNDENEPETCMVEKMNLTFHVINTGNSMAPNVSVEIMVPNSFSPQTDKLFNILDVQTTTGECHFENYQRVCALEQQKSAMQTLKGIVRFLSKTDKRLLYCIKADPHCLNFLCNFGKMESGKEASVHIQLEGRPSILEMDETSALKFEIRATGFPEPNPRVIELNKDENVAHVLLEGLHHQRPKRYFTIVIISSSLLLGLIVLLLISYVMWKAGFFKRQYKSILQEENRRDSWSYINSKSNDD

[2] = target: T1, Integrin alpha-4; experiment: Compound was evaluated for VCAM-VLA-4 antagonistic activity using solid phase assay; assay type: functional

Row | IC50 [1] | IC50 [2] | SMILES
1 | 220 nM | 2.7 nM | CC(=O)N1CCC(c2ccc(O)cc2)C1C(=O)N[C@H]1CCSC[C@@H](C(=O)O)NC(=O)C2(CCCC2)CCNC1=O (some centres not stated)
2 | 20 nM | 0.5 nM | CC(=O)N1CCC(c2ccc(O)cc2)C1C(=O)N[C@H]1CSCC[C@@H](C(=O)O)NC(=O)C2(CCCC2)CCNC1=O (some centres not stated)
3 | – | 35 nM | CC(=O)N1CCC(c2ccc(O)cc2)C1C(=O)N[C@H]1CCSCC[C@@H](C(=O)O)NC(=O)C2(CCCC2)CCNC1=O (some centres not stated)
4 | 1.5 nM | 0.1 nM | CC(=O)N1CCC(c2ccc(O)cc2)C1C(=O)N[C@H]1CSSC[C@@H](C(=O)O)NC(=O)C2(CCCC2)CCNC1=O (some centres not stated)
